In publication PMC7343746, “(2S, 4R)-4-[^18F]Fluoroglutamine for In vivo PET Imaging of Glioma Xenografts in Mice: an Evaluation of Multiple Pharmacokinetic Models” (Molecular Imaging and Biology, 2020):

Legend:
rat BT4C glioma cells [1] = test: 2-Compartment model, subcutaneous model; format: in vivo, Foxn1^nu/nu mouse
Protocol: Image analysis was performed using CARIMAS software published and freely distributed by the Turku PET Center (http://turkupetcentre.fi/carimas/). CT scans were used as rough anatomical reference while tumor regions of interest (ROI) were hand-drawn based upon observed spikes of radioactivity in the PET images at locations correlating with recorded tumor grafts. Control muscle ROIs were drawn on the side opposite to the tumor in the leg flank muscle (based on CT) while the blood ROI was drawn based upon heart anatomical location and observed PET image radioactivity spike during the initial 20 s of imaging in the left ventricle. Standardized uptake values (SUV) were calculated with respect to ROI volume, mean and max tumor radioactivity, total injected radioactivity dose (corrected for tail, cannula, and syringe residual radioactivity), and animal weight, and were additionally presented as tumor-to-background ratio (TBR, tumor-to-healthy brain region for intracranial gliomas and tumor-to-muscle for subcutaneous gliomas) as defined by recent glioma research literature standards. Mean and maximum TBR values were reported as ROI radioactivity per volume divided by mean background radioactivity per volume. The blood radioactivity SUV and gender-specific metabolite-corrected blood radioactivity SUV were then applied to multiple pharmacokinetic models to characterize the flux of the tracer (further described in the “Modeling” section).
Using the heart’s left ventricle ROI from the PET data as an uncorrected radioactivity level input and the bioavailable parent-tracer fraction (results: Eqs. 3 and 4 applied to the uncorrected input) as the corrected input, multiple models were investigated to characterize the tissue uptake dynamics. Two-compartment modeling and Logan, Patlak, and Yokoi plots were used to separately model the pharmacokinetics for the gliomas (both subcutaneous and orthotopic loci) and their respective control tissues (healthy muscle and healthy brain, respectively). Where indicated, means plus/minus standard deviations are reported. Difference in parameters for uncorrected versus correct and target tissue versus their respective control regions were tested with students’ paired t tests with P values lower than 0.05 being considered significant.

rat BT4C glioma cells [2] = test: Ex vivo biodistribution; format: in vivo, Foxn1^nu/nu mouse; conditions: higher than subcutaneous tumor
From the text: See Suppl. Materials in ESM for detailed descriptions of biodistribution, stability, cryosectioning, autoradiography, and histology.
Ex Vivo Biodistribution Results
The tracer accumulated highly in the pancreatic tissue with notable high uptake in the skull (bo ne) and femur (bone + marrow). The bone uptake is classically characteristic of defluorination occurring which leads to absorption into the osseous tissue. […]
adipose tissue likely due to the comparative increased number of metabolic processes which encompass its cell type characteristics.
Supplemental Fig. 11. Ex vivo biodistribution averages of [ 18F]FGln uptake 63 minutes post-injection in subcutaneously xenografted BT4C tumor bearing Foxn1 nu/nu mice (female, n = 5) and control C57BL/6JRj […]

[3] = Bone (femoral condyle) average (n=6), plasma-corrected input
[4] = Flank muscle average (n = 6), arterial blood input
[5] = Flank muscle average (n=6), plasma-corrected input
[6] = Flank tumor average (n = 6), arterial blood input
[7] = Flank tumor average (n=6), plasma-corrected input
[8] = Neck tumor average (n = 6), arterial blood input
[9] = Neck tumor average (n=6), plasma-corrected input

NC(=O)[C@H]([18F])C[C@H](N)C(=O)O [[^18F]FGln, (2S, 4R)-4-[^18F]fluoroglutamine]
2-Compartment K1 (rat BT4C glioma cells [1]; [3]): 0.402 ± 0.206 mL min-1 mL-1
2-Compartment K1/k2 (rat BT4C glioma cells [1]; [3]): 0.649 ± 0.191 mL mL-1
2-Compartment Vb (rat BT4C glioma cells [1]; [3]): 3.21 ± 3.57%
2-Compartment k3 (rat BT4C glioma cells [1]; [3]): 0.148 ± 0.063 min⁻¹
2-Compartment k3*K1/k2 (rat BT4C glioma cells [1]; [3]): 0.086 ± 0.024
2-Compartment k3/(k2+k3) (rat BT4C glioma cells [1]; [3]): 0.198 ± 0.079
2-Compartment K1 (rat BT4C glioma cells [1]; [4]): 0.079 ± 0.027 mL min-1 mL-1
2-Compartment K1/k2 (rat BT4C glioma cells [1]; [4]): 0.564 ± 0.130 mL mL-1
2-Compartment Vb (rat BT4C glioma cells [1]; [4]): 2.33 ± 1.07%
2-Compartment k3 (rat BT4C glioma cells [1]; [4]): 0.009 ± 0.005 min⁻¹
2-Compartment k3*K1/k2 (rat BT4C glioma cells [1]; [4]): 0.005 ± 0.002
2-Compartment k3/(k2+k3) (rat BT4C glioma cells [1]; [4]): 0.061 ± 0.038
2-Compartment K1 (rat BT4C glioma cells [1]; [5]): 0.081 ± 0.027 mL min-1 mL-1
2-Compartment K1/k2 (rat BT4C glioma cells [1]; [5]): 0.797 ± 0.163 mL mL-1
2-Compartment Vb (rat BT4C glioma cells [1]; [5]): 2.8 ± 1.12%
2-Compartment k3 (rat BT4C glioma cells [1]; [5]): 0.015 ± 0.005 min⁻¹
2-Compartment k3*K1/k2 (rat BT4C glioma cells [1]; [5]): 0.012 ± 0.003
2-Compartment k3/(k2+k3) (rat BT4C glioma cells [1]; [5]): 0.136 ± 0.055
2-Compartment K1 (rat BT4C glioma cells [1]; [6]): 0.147 ± 0.028 mL min-1 mL-1
2-Compartment K1/k2 (rat BT4C glioma cells [1]; [6]): 0.973 ± 0.187 mL mL-1
2-Compartment Vb (rat BT4C glioma cells [1]; [6]): 5.59 ± 2.78%
2-Compartment k3 (rat BT4C glioma cells [1]; [6]): 0.005 ± 0.004 min⁻¹
2-Compartment k3*K1/k2 (rat BT4C glioma cells [1]; [6]): 0.004 ± 0.003
2-Compartment k3/(k2+k3) (rat BT4C glioma cells [1]; [6]): 0.028 ± 0.021
2-Compartment K1 (rat BT4C glioma cells [1]; [7]): 0.148 ± 0.027 mL min-1 mL-1
2-Compartment K1/k2 (rat BT4C glioma cells [1]; [7]): 1.369 ± 0.273 mL mL-1
2-Compartment Vb (rat BT4C glioma cells [1]; [7]): 6.64 ± 3.1%
2-Compartment k3 (rat BT4C glioma cells [1]; [7]): 0.010 ± 0.004 min⁻¹
2-Compartment k3*K1/k2 (rat BT4C glioma cells [1]; [7]): 0.013 ± 0.003
2-Compartment k3/(k2+k3) (rat BT4C glioma cells [1]; [7]): 0.086 ± 0.028
2-Compartment K1 (rat BT4C glioma cells [1]; [8]): 0.202 ± 0.079 mL min-1 mL-1
2-Compartment K1/k2 (rat BT4C glioma cells [1]; [8]): 1.129 ± 0.141 mL mL-1
2-Compartment Vb (rat BT4C glioma cells [1]; [8]): 8.28 ± 5.95%
2-Compartment k3 (rat BT4C glioma cells [1]; [8]): 0.002 ± 0.002 min⁻¹
2-Compartment k3*K1/k2 (rat BT4C glioma cells [1]; [8]): 0.002 ± 0.002
2-Compartment k3/(k2+k3) (rat BT4C glioma cells [1]; [8]): 0.015 ± 0.013
2-Compartment K1 (rat BT4C glioma cells [1]; [9]): 0.202 ± 0.072 mL min-1 mL-1
2-Compartment K1/k2 (rat BT4C glioma cells [1]; [9]): 1.567 ± 0.209 mL mL-1
2-Compartment Vb (rat BT4C glioma cells [1]; [9]): 9.79 ± 6.85%
2-Compartment k3 (rat BT4C glioma cells [1]; [9]): 0.008 ± 0.002 min⁻¹
2-Compartment k3*K1/k2 (rat BT4C glioma cells [1]; [9]): 0.013 ± 0.002
2-Compartment k3/(k2+k3) (rat BT4C glioma cells [1]; [9]): 0.065 ± 0.026
Pancreas uptake relative to tumor (rat BT4C glioma cells [2]): 6 fold
